Our source for the IC50 values is patent US20240409543A1, “PYRROLOPYRAZOLE SPIRO COMPOUND” (CHIA TAI TIANQING PHARMACEUTICAL GROUP CO., LTD., priority 2021, published 2024).

Assay [1] relates to MiaPaCa-2 cells (MIAPACA2_PANCREAS). In words: Anti-proliferation experiment on tumor cells with KRAS mutations, MiaPaCa-2 (3D CellTiter-Glo). The class given is cell-based. The settings on record: Homo sapiens, MIA PaCa-2, 72 h, 3 days incubation with compound, ultra-low attachment plate. The text has this:
(§1) Cell culture medium, penicillin/streptomycin antibiotics purchased from Wisent, and fetal bovine serum purchased from Biosera; 3D CellTiter-Glo (chemiluminescence detection reagent for cell viability) reagent purchased from Promega; Cell lines purchased from Nanjing Cobioer Biosciences Co., Ltd. and Wuhan Procell Life Science & Technology Co., Ltd; and Envision multimode microplate reader (PerkinElmer).
(§2) Different types of tumor cells were each seeded in an ultra-low attachment 96-well U-bottom plate, with 80 μL of cell suspension per well. The cell plate was incubated in a CO2 incubator overnight.
(§3) Each test compound was diluted in a 5-fold gradient to the 9th concentration (i.e., from 2 mM to 5.12 nM or from 200 μM to 0.512 nM) using a multi-channel pipette, with duplicate wells set up. 78 μL of medium was added to an intermediate plate, and the serially diluted compound was transferred to the corresponding wells of the intermediate plate at 2 μL/well. The mixture was mixed well and then transferred to the cell plate at 20 µL/well. The concentration of the compound transferred to the cell plate ranged from 10 μM to 0.0256 nM or from 1 μM to 0.00256 nM. The cell plate was then incubated in a CO2 incubator for 3-6 days.
(§4) The chemiluminescence detection reagent for cell viability was added to the cell plate at 100 μL/well, and the luminescence signals were stabilized by incubation for 10 min at room temperature. Readings were taken using the multimode microplate reader.
(§5) The original data were converted to inhibition rates and then the IC50 values were obtained by curve fitting using a four-parameter method (obtained from the “log(inhibitor) vs. response—Variable slope” model in GraphPad Prism). Table 2 illustrates the inhibitory activity of the compounds disclosed herein against the proliferation of different types of tumor cells.

For another assay, the target named is T1, SHP2 (Homo sapiens, UniProt Q06124).
T1 construct: Homogeneous Full Length SHP-2 Assay Kit (purchased from BPS Bioscience); purchased BPS Bioscience
T1 sequence (Q06124 1-593): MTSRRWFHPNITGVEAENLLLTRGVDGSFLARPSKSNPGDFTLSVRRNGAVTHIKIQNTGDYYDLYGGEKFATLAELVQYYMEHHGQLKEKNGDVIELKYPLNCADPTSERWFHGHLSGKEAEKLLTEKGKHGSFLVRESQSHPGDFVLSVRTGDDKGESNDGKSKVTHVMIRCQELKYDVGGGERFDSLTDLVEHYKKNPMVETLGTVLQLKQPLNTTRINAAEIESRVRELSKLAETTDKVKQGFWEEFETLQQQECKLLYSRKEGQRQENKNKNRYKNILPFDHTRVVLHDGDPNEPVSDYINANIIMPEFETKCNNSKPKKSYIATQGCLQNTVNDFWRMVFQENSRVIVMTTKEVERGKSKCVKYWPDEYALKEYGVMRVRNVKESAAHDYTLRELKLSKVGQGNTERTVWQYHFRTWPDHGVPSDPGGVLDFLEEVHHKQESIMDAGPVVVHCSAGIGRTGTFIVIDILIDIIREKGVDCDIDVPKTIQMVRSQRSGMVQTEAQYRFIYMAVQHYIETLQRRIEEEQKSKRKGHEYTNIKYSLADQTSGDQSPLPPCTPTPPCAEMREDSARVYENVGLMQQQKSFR
In words: SHP2 in-vitro enzymology experiment (Homogeneous Full Length SHP-2 Assay Kit, DiFMUP substrate). The assay is classed as biochemical. The settings on record: 60 min pre-incubation, 30 min reaction at 25° C. Here is the method: Experimental materials: Homogeneous Full Length SHP-2 Assay Kit (purchased from BPS Bioscience) and NIVO multimode microplate reader.
Preparation of 1× buffer (ready-to-use): 5× buffer was diluted with deionized water to give 1× buffer, which was then placed on ice for later use.
Each test compound was diluted with 100% DMSO to 100 μM as the first concentration, and then diluted in a 4-fold gradient to the 8th concentration (i.e., from 100 μM to 6.1 nM) using a multi-channel pipette. Each gradient of the test compound was diluted with 1× buffer to prepare a working solution with 10% DMSO. The resulting solution was then added to the corresponding wells of a plate at 5 μL/well, with duplicate wells set up. The plate was then centrifuged at 1000 rpm for 1 min.
18 μL of a prepared reaction mixed solution (containing 12.25 μL of deionized water, 5 μL of 5× buffer; 0.25 μL of SHP-2 substrate polypeptide (100 μM), and 0.5 μL of DTT (250 mM)) was added to each well. The plate was then centrifuged at 1000 rpm for 1 min.
An SHP-2 enzyme was diluted to 0.1 ng/μL with 1× buffer. The resulting solution was added to the corresponding wells at 2 μL/well, and 2 μL of 1× buffer and […] were added to each negative control well. This step was performed on ice. The reaction system was then incubated at 25° C. for 60 min for compound pre-incubation.
After the compound pre-incubation was completed, 25 μL of a substrate working solution (containing 19.45 μL of deionized water, 5 μL of 5× buffer; 0.5 μL of DTT (250 mM), and 0.05 μL of SHP-2 Substrate (DiFMUP) (10 mM)) was added to each well, and the reaction system was allowed to react at 25° C. for 30 min. At that time, the final concentration gradient of the compound ranged from 1 μM to 0.061 nM. After the reaction was completed, the fluorescence values were read using the NIVO multimode microplate reader, with an excitation wavelength of 360 nm and an emission wavelength of 460 nm.
Detection of compound background reading values: Each gradient of the test compound diluted with 100% DMSO was added to a new compound plate at 5 μL/well, and then 1× buffer was added at 45 μL/well to achieve a 10-fold dilution to prepare a working solution with 10% DMSO. Next, the compound working solution was added to the detection plate at 5 μL/well, and then 1× buffer was added at 45 μL/well to achieve another 10-fold dilution, bringing the final concentration of DMSO to 1%. The plate was then centrifuged at 1000 rpm for 1 min. The fluorescence values were read using the multimode microplate reader, with an excitation wavelength of 360 nm and an emission wavelength of 460 nm.
The original data were converted to inhibition rates and the IC50 values were obtained by curve fitting using a four-parameter method.

Assay [2] has as its system H358 cells (NCIH358_LUNG). In words: Anti-proliferation experiment on tumor cells with KRAS mutations, H358 (3D CellTiter-Glo). The settings on record: Homo sapiens, NCI-H358, 120 h, 5 days incubation with compound, ultra-low attachment plate. The assay is classed as cell-based.
Source text: as §1, §2, §3, §4, §5

Turning to `Cc1nc(N2CCC3(CC2)Cn2nccc2C3N)c(CO)nc1Sc1ccnc(N)c1Cl` (stereo not drawn) [Compound 1], the IC50 (usually the concentration that inhibits the measured activity by half) worked out at 22.6 nM in assay [1], 1.73 nM against SHP2 and 22.1 nM in assay [2].
`Cc1nc(N2CCC3(CC2)Cn2nccc2C3N)c(CO)nc1Sc1cccnc1C(F)(F)F` (stereo not drawn) [Compound 4]: the IC50 in assay [1] worked out at 56.9 nM; against SHP2 it was 2.14 nM; in assay [2], 145 nM.
On the same counts, the results for `Cc1nc(N2CCC3(CC2)Cn2nccc2C3N)c(CO)nc1Sc1ccnc(N)c1F` (stereo not drawn) [Compound 6] are 62.1 nM, 3.15 nM and 120 nM.
With `CNc1nccc(Sc2nc(CO)c(N3CCC4(CC3)Cn3nccc3C4N)nc2C)c1Cl` (stereo not drawn) [Compound 2], the concentration for half-maximal inhibition (IC50) in assay [1] is 24.4 nM; at SHP2 it was 2.87 nM; in assay [2] it was 61.4 nM.
